How the values were obtained:
GSH depletion = experiment: UVA-induced GSH depletion in NHDF (DTNB); assay type: cell-based, human
Source text: (§1) Normal human dermal fibroblasts (NHDF) were used as an in vitro model. Cells were isolated from tissue specimens obtained from healthy patients undergoing plastic surgery at the Department of Plastic and Aesthetic Surgery (University Hospital Olomouc). The use of skin tissue was in accordance with the Ethics Committee of the University Hospital and Faculty of Medicine and Dentistry, Palacky University, Olomouc and all patients signed written informed consent. Fibroblasts were used between the 2nd and 4th passage. […]
(§2) Test compounds included 6-(tetrahydrofuran-2-ylmethylamino)-9-(tetrahydrofuran-2-yl)purine and positive control (rosmarinic acid). […] Intensity of UVA radiation was evaluated before each irradiation by UVA-meter. […] After 1 hour (37° C., 5% CO2) cell damage was evaluated by analysis of reactive oxygen species (ROS) production. In parallel, intracellular levels of glutathion (GSH) were measured 4 hours (37° C., 5% CO2) after UVA application.
GSH levels in NHDF were evaluated by reaction with 5,5′-Dithiobis(2-nitrobenzoic acid) (DTNB). […] Absorbance was measured at 412 nm. Protein content was analyzed spectrophotometrically by Lowry's method at 680 nm.
Activity of test compounds (not irradiated) in analyzed parameters were evaluated by comparison of experimental data according to the following equation: […]

ROS production = experiment: UVA-induced ROS production in NHDF (H2DCFDA); assay type: cell-based, human
Source text: as §1, §2
ROS production was evaluated by 2,7-Dichlorodihydrofluorescein diacetate (H2DCFDA). […] Samples were applied on 96-well plate and fluorescence was measured (488/525 nm) (INFINITE M200, Tecan, Switzerland) after centrifugation (10 000 rpm, 4° C., 10 min). Protein content was analyzed spectrophotometrically by bicinchoninic acid at 562 nm (INFINITE M200, Tecan, Switzerland). […]

[1] = test system: Normal Human Epidermal Keratinocytes (NHEK); experiment: In vitro phototoxicity test (neutral red) on NHEK; assay type: cell-based
Source text: Normal Human Epidermal Keratinocytes (NHEK) were used as an in vitro model. Cells were isolated from tissue specimens obtained from healthy patients undergoing plastic surgery at the Department of Plastic and Aesthetic Surgery (University Hospital Olomouc). The use of skin tissue was in accordance with the Ethics Committee of the University Hospital and Faculty of Medicine and Dentistry, Palacky University, Olomouc and all patients signed written informed consent. NHEK were used between the 3rd and 4th passage. […] Intensity of UVA radiation was evaluated before each irradiation by UVA-meter. […]
After UVA exposure PBS with glucose was discarded and serum free medium was applied. After 24 hours (37° C., 5% CO2) cell damage was evaluated by neutral red (NR) incorporation into viable cells. […] After 5 minutes of intensive shaking absorbance was measured at 540 nm. […] Phototoxic effect was evaluated as % of viability of control cells that was calculated from experimental data (absorbance) according to the following equation: […]
AS . . . absorbance of sample (cells pre-incubated with test compound in serum free medium and irradiated)
AC . . . absorbance of control (cells pre-incubated with DMSO in serum free medium and irradiated)
AB . . . absorbance of background (extraction solution)

[2] = non-irradiated NHDF, 2.5-20 μmol/l

| SMILES | protection against GSH depletion in comparison with rosmarinic acid (in words) (GSH depletion; UVA, NHDF) | effect on GSH level in non-irradiated cells (in words) (GSH depletion; [2]) | protection against production of ROS in comparison with rosmarinic acid (in words) (ROS production; UVA, NHDF) | effect on ROS production in non-irradiated cells (in words) (ROS production; [2]) | viability of NHEK cells ([1]; UVA+, 0.6 μmol/l) | viability of NHEK cells ([1]; UVA−, 12.5 μmol/l) |
| --- | --- | --- | --- | --- | --- | --- |
| c1nc(NCC2CCCO2)c2ncn(C3CCCO3)c2n1 (stereo not drawn) [Compound 1, 6-(tetrahydrofuran-2-ylmethylamino)-9-(tetrahydrofuran-2-yl)purine] | less effective | did not showed negative effect | more effective | did not showed negative effect |  |  |
| CN(C)CCCN1c2ccccc2Sc2ccc(Cl)cc21 [chlorpromazine, reference compound] |  |  |  |  | below 80 % of control | below 50% |

— patent publication US10774084B2, “Adenine derivatives and their use as UV-photoprotective agents” (UNIVERZITA PALACKEHO V OLOMOUCI, priority 2015, dated 2020)
